Here are results for five compounds from patent US6569893B2, “Amino acid derivatives of triptolide compounds as immune modulators and anticancer agents” (Pharmagenesis, Inc., priority 2001, dated 2003).

Experiment [1] relates to Jurkat human T lymphocyte cell line. In words: Terminal deoxynucleotidyl transferase (TdT, TUNEL) apoptosis assay after incubation of compound with human serum. The experiment is classed as cell-based. To be noted: for EC50: Jurkat cells, 24 h, compound pre-incubated 48 hr at 37° C. in pooled human serum, concentration inducing 50% apoptosis, read-out: ED50 (nM) after 48 hr incubation with human serum; for Conversion (relative activity compared to PG490) (%): percent of ED50 relative to triptolide incubated in parallel in human serum (taken as 100%). On the procedure:
(§1) Several compounds of formula I were prepared, as described in the Examples. In preliminary assays, the compounds were evaluated for their capacity to induce apoptosis in cells from the Jurkat human T lymphocyte cell line, after incubation with pooled human serum for 48 hrs at 37° C. (see Example 7). One of the compounds was also analyzed for its capacity to inhibit IL-2 production in Jurkat human T lymphocyte cells (see Example 8). Controls consisted of the compounds incubated in complete tissue culture medium (RPMI 1640 medium plus 5% heat-inactivated fetal calf serum, 1% HEPES, 1% pen/strep, 1% glutamine) rather than human serum.
(§2) The ED50/IC50 values (column 3) are calculated directly from the data in each experiment, and the % conversion values (column 4) are calculated as percent of the ED50 or IC50 value produced by triptolide, incubated in the same plasma (i.e. in the same experiment).
Pooled human serum was stored in aliquots at −80° C. Test compounds were added at 20 mM to thawed human serum in 1.5 ml microfuge tubes and incubated at 37° C. in a water bath for 48 hours. The test samples were placed on ice until dilution for the bioassay. Controls consisted of the compounds incubated in complete tissue culture medium (RPMI 1640 medium plus 5% heat-inactivated fetal calf serum, 1% HEPES, 1% pen/strep, 1% glutamine) rather than human serum.
Test samples were diluted to 1 mM in complete tissue culture medium. Aliquots were placed in microculture plates and serial dilutions were prepared so that the final concentration would encompass the range of 2 to 6,000 nM with half-log increments. Cells from an exponentially expanding culture of the Jurkat human T lymphocyte cell line (#TIB-152 obtained from American Type Culture Collection, Manassas, Va.) were harvested, washed once by centrifugation and dilution in complete tissue culture medium, and diluted to a concentration of 1×10^6 cells/ml. A volume of 100 μl of Jurkat cells (1×10^5 cells) was added to wells containing 100 μl of the diluted compounds, and the plates were incubated at 37° C. in a 5% CO2 incubator. After 24 hours, the plates were centrifuged to pellet the cells, and the cells were washed with PBS. The cells were fixed in paraformaldehyde, washed, treated with ethanol, washed and then incubated with the enzyme terminal deoxynucleotidyl transferase (TdT) and fluorescein labeled-deoxyuridine (dUTP). The process allows 3′ end labeling of DNA molecules which were nicked during the DNA fragmentation phase of apoptosis (terminal deoxynucleotidyl transferase dUTP nick end labeling; TUNEL labeling). The cells were washed, treated with ribonuclease, washed and resuspended in medium containing propidium iodide to distinguish intact apoptotic cells. The contents of the assay wells were individually transferred into test tubes, and apoptosis was analyzed using a FACSCalibur flow cytometer (BD Immunocytometry Systems, San Jose, Calif.). Cells positive for Fl-dUTP were considered to be apoptotic, and the data were calculated as percent apoptotic cells.
For the assays in sections B and C, data were plotted as the concentration of compound incubated in serum versus percent apoptotic cells, and the concentration of compound inducing 50% apoptosis (ED50) was calculated from these dose response curves. The percent conversion of the test compounds to bioactive compound (assumed to be triptolide) was calculated in reference to the result with triptolide incubated in parallel in human serum in the same experiment, as the percent of the ED50 of the compound compared to that for triptolide, which was taken as 100%.

In experiment [2] the test system is HT-29 human colon cancer cell line tumor xenografts. As to conditions: HT-29 xenografts, cited from earlier work.
In experiment [3] the test system is IL-2 production in Jurkat human T lymphocyte cells. In words: IL-2 production (inhibition) assay after incubation of compound with human serum. The experiment is classed as cell-based. On the procedure:
as §1, §2
(§3) Pooled human serum was stored in aliquots at −80° C. […]
Test samples, incubated in human serum as described in Example 7A, were diluted to 1 mM in complete tissue culture medium. […] The stored supernatants were analyzed for human IL-2 concentration using the Luminex 100 (Luminex Corporation, Austin, Tex.), Luminex microspheres coupled with anti-IL-2 capture antibody, and fluorochrome-coupled anti-IL-2 detection antibody. The data were expressed as ng/ml of IL-2. […]

For experiment [4], the system named is Jurkat human T lymphocyte cell line. In words: Annexin V apoptosis assay after incubation of compound with human serum. The experiment is classed as cell-based. On the procedure: as §1, §2, §3
Test samples (incubated in human serum as described in section A) were prepared and diluted as described in section B, and Jurkat human T lymphocyte cells were prepared and added to wells containing 100 μl of the diluted compounds, also as described in section B. The plates were incubated at 37° C. in a 5% CO2 incubator. […] Cells positive for Annexin V binding were considered to be apoptotic, and the data were calculated as percent apoptotic cells. […]

SMILES strings stand for the structures.

Turning to `CC(C)[C@]12O[C@H]1[C@@H]1O[C@]13[C@]1(O[C@H]1C[C@H]1C4=C(CC[C@@]13C)C(=O)OC4)[C@@H]2OC(=O)C(CCC(=O)OCc1ccccc1)NC(=O)OCc1ccccc1` (mixture of isomers) [PG657, Triptolide 14-γ-Benzyl-N-benzyloxycarbonyl-(L)-glutamate Ester, mixture with D-isomer], in experiment [1], the EC50 was determined as 300 nM and the “Conversion (relative activity compared to PG490) (%)” value was found to be 10%.

On to `CC(C)C12OC1C1OC13C1(C)CCC4=C(COC4=O)C1CC1OC13C2OC(=O)CCC(=O)O` (stereo not drawn) [14-succinate derivative of triptolide], for which, in experiment [2], the Tumor regression entry is recorded as “induced tumor regression”. Further, the Tumor growth inhibition entry in experiment [2] (in comparison to 5-FU and CPT-11) was “strongly inhibited tumor growth, to a significantly greater degree than 5-FU and CPT-11”.

Consider `CC(C)[C@]12O[C@H]1[C@@H]1O[C@]13[C@]1(O[C@H]1C[C@H]1C4=C(CC[C@@]13C)C(=O)OC4)[C@@H]2OC(=O)CC[C@H](NC(=O)OC(C)(C)C)C(=O)OC(C)(C)C` [PG658, Triptolide 14-N-t-Butoxycarbonyl-α-t-butyl-L-glutamate Ester], for which, in experiment [1] (Homo sapiens, Jurkat), the EC50 was 750 nM. In addition, the “Conversion (relative activity compared to PG490) (%)” value in experiment [1] is 4.0%.

With `CC(C)[C@]12O[C@H]1[C@@H]1O[C@]13[C@]1(O[C@H]1C[C@H]1C4=C(CC[C@@]13C)C(=O)OC4)[C@@H]2OC(=O)CC[C@@H](NC(=O)OCc1ccccc1)C(=O)OCc1ccccc1` [PG660, Triptolide 14-α-Benzyl-N-benzyloxycarbonyl-D-glutamate Ester], the EC50 in experiment [1] (Homo sapiens, Jurkat) came out at 1100 nM. The “Conversion (relative activity compared to PG490) (%)” value in experiment [1] turned out to be 2.7%.

Consider `CC(C)[C@]12O[C@H]1[C@@H]1O[C@]13[C@]1(O[C@H]1C[C@H]1C4=C(CC[C@@]13C)C(=O)OC4)[C@@H]2OC(=O)CC[C@H](N)C(=O)O` [PG661, 14-γ-L-glutamate Ester of Triptolide], for which the “Conversion (relative activity compared to PG490) (%)” value is listed as 1.4% in experiment [3] (IL-2 inhibition assay, percent of IC50 relative to triptolide incubated in parallel (taken as 100%)) and 0.16% in experiment [4] (percent of ED50 relative to triptolide incubated in parallel in human serum (taken as 100%)). Besides, in experiment [3] (IL-2 inhibition, anti-CD3/PMA-stimulated Jurkat cells, 24 h, compound pre-incubated 48 hr in human serum, 50% decrease in IL-2 concentration), half-maximal inhibition (IC50) was put at 330 nM. Further, in experiment [4] (Jurkat cells, 24 h, compound pre-incubated 48 hr at 37° C. in pooled human serum, read-out: ED50 (nM) after 48 hr incubation with human serum), the EC50 was determined as 34700 nM.

As usually defined, the IC50 is the concentration at which inhibition is half-maximal. Higher therefore signals a need for much substance.
